Measurements as given in the supplement of paper PMC10307832.

Legend:
Test in all cases: relative viability (nuclei count vs DMSO), 5 days (fraction); higher = more cells survive
Idelalisib + Phenformin = compound: CC[C@H](Nc1ncnc2[nH]cnc12)c1nc2cccc(F)c2c(=O)n1-c1ccccc1 [Idelalisib] + N=C(N)NC(=N)NCCc1ccccc1 [Phenformin] (partner 250 µM)
Procedure, shortened: (§1)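 Lung cancer cell lines were seeded in 1536-well plates and dosed by pin tool the next day, with either a single drug or a fixed anchor-drug dose combined with five library-drug doses (not always all listed) spaced in √10 steps. Five days later, one step fixed the cells and stained their nuclei (final 0.05% Triton X-100, 1% formaldehyde, 1 ug/ml Hoechst), and nuclei were counted on 4× images. Relative viability is the nuclei count in treated wells divided by the count in vehicle wells, and each value is the median of duplicate plates.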

Pemetrexed + Dasatinib = compound: Nc1nc2[nH]cc(CCc3ccc(C(=O)N[C@@H](CCC(=O)O)C(=O)O)cc3)c2c(=O)[nH]1 [Pemetrexed] + Cc1nc(Nc2ncc(C(=O)Nc3c(C)cccc3Cl)s2)cc(N2CCN(CCO)CC2)n1 [Dasatinib] (partner 0.075 µM)
Procedure, shortened: as §1

Idelalisib + Foretinib = compound: CC[C@H](Nc1ncnc2[nH]cnc12)c1nc2cccc(F)c2c(=O)n1-c1ccccc1 [Idelalisib] + COc1cc2c(Oc3ccc(NC(=O)C4(C(=O)Nc5ccc(F)cc5)CC4)cc3F)ccnc2cc1OCCCN1CCOCC1 [Foretinib] (partner 0.25 µM)
Procedure, shortened: as §1

Idelalisib = compound: CC[C@H](Nc1ncnc2[nH]cnc12)c1nc2cccc(F)c2c(=O)n1-c1ccccc1 [Idelalisib]
Procedure, shortened: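 Vehicle-anchored 1536-well plates of lung cancer cell lines, held overnight at 37 °C, were pinned with five library-drug doses (not always all listed) spaced by √10. No medium change followed over the next 5 days, after which the cells were fixed, permeabilised and Hoechst-stained together and imaged at 4×. Nuclei were counted with MetaXpress, and viability is treated-well nuclei over vehicle-well nuclei, taken as a median across plates. Plates passed with control CV below 25% and at least one doubling.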

Row | Cell Line | relative viability (Idelalisib + Phenformin; first compound 0.04 µM) | relative viability (Idelalisib + Phenformin; first compound 0.1265 µM) | relative viability (Idelalisib + Phenformin; first compound 0.4 µM) | relative viability (Idelalisib + Phenformin; first compound 1.265 µM) | relative viability (Idelalisib + Phenformin; first compound 4 µM) | relative viability (Pemetrexed + Dasatinib; first compound 0.002 µM) | relative viability (Pemetrexed + Dasatinib; first compound 0.006325 µM) | relative viability (Pemetrexed + Dasatinib; first compound 0.02 µM) | relative viability (Pemetrexed + Dasatinib; first compound 0.06325 µM) | relative viability (Pemetrexed + Dasatinib; first compound 0.2 µM) | relative viability (Idelalisib + Foretinib; first compound 0.04 µM) | relative viability (Idelalisib + Foretinib; first compound 0.1265 µM) | relative viability (Idelalisib + Foretinib; first compound 0.4 µM) | relative viability (Idelalisib + Foretinib; first compound 1.265 µM) | relative viability (Idelalisib + Foretinib; first compound 4 µM) | relative viability (Idelalisib; 0.04 µM) | relative viability (Idelalisib; 0.1265 µM) | relative viability (Idelalisib; 0.4 µM) | relative viability (Idelalisib; 1.265 µM) | relative viability (Idelalisib; 4 µM)
1 | NCI-H650 | 0.519 | 0.429 | 0.446 | 0.487 | 0.457 | 0.408 | 0.469 | 0.431 | 0.444 | 0.481 | 1.05 | 1.05 | 0.948 | 1.05 | 1 | 0.938 | 1.01 | 0.885 | 1.05 | 0.889
2 | NCI-H661 | 0.271 | 0.256 | 0.256 | 0.269 | 0.281 | 0.882 | 0.84 | 0.958 | 0.945 | 0.827 | 1.12 | 1.06 | 1.02 | 1.01 | 1.02 | 1.07 | 0.976 | 0.98 | 1.01 | 0.994
3 | NCI-H727 | 0.582 | 0.56 |  | 0.607 | 0.448 |  | 0.395 | 0.386 | 0.421 | 0.381 | 1.1 | 0.968 | 0.629 | 0.92 | 0.691 | 1.07 | 1.16 | 0.715 | 0.987 | 0.887
4 | NCI-H838 | 0.61 | 0.668 | 0.405 | 0.607 | 0.405 | 0.361 | 0.285 | 0.262 | 0.212 | 0.218 | 1.08 | 0.947 | 0.912 | 0.931 | 0.821 | 0.958 | 0.993 | 0.851 | 0.921 | 0.753
5 | NCI-H1355 | 0.476 | 0.502 | 0.364 | 0.448 | 0.411 | 0.612 | 0.692 | 0.703 | 0.748 | 0.752 | 0.992 | 0.946 | 0.907 | 0.868 | 0.823 | 1.03 | 1 | 0.871 | 0.961 | 0.861
6 | NCI-H1395 | 0.476 | 0.421 | 0.423 | 0.445 | 0.439 | 0.441 | 0.471 | 0.481 | 0.369 | 0.401 | 1.02 | 0.959 | 0.976 | 0.963 | 0.707 | 1.07 | 0.991 | 0.846 | 0.912 | 0.741
7 | NCI-H1437 | 0.309 | 0.306 | 0.297 | 0.361 | 0.247 |  | 0.473 | 0.468 | 0.334 | 0.21 | 1.24 | 1.32 | 1.24 | 1.36 | 1.42 | 1.01 | 0.995 | 0.965 | 1.12 | 1.05
